The nature of data set [1]: mRNA encapsulation efficiency by Ribo-green assay. The settings on record: mRNA formulation, compound:DOPE:Cholesterol:DMG-PEG=50:10:38.5:1.5, N/P ratio 6. Type of data set: physicochemical. How it is done: (§1) According to the following table 1, the materials required for preparing the formulation were dissolved in each dilution solvent and prepared at the required concentration. When dissolving, the materials were kept at room temperature and then the solvent was added to dissolve them.
(§2) The required amounts of the raw materials were mixed in order to meet the N/P ratio (amine group of lipid/phosphate group of mRNA) of 6 and each compound of formulas A to G:DOPE:Cholesterol:DMG-PEG=50:10:38.5:1.5. Ethanol was added to the ethanol layer so that the molecular total of all raw materials was within 12.5 mM, and the aqueous phase and ethanol phase were mixed maintaining a volume ratio of 3:1. After the mixing, to reduce the total ethanol content, buffer exchange was performed as follows: The mixture solution was concentrated by centrifugation at 4,000 rpm using an Amicon-Ultra tube filter (Merk Millipore, UFC505096 or UFC805024, pore size: 50K, volume: 15 mL), then diluted with PBS and centrifuged to concentrate. This process was repeated to exchange the buffer.
(§3) The more concrete procedure is as follows: • 1) Two autoclaved tubes were prepared (tubes (A) and (B)). • 2) In tube (A), each compound of formulas A to G, DOPE, cholesterol and DMG-PEG in molar quantities calculated according to the experimental conditions were sequentially added and mixed by vortexing. • 3) In the ethanol phase, when necessary, ethanol was added so that the molecular total of all raw materials was within 12.5 mM. • 4) In tube (B), mRNA and 20 mM sodium acetate buffer (pH 4.6) were mixed. At that time, the ratio was calculated and added so that the aqueous phase was total three times the amount of the ethanol phase. • 5) Mixing of Tube (A) and Tube (B) was performed using a Microfluidics (Ignite, Precision Nanosystem) device. Microfluidics operating conditions were FRR (Flow Rate Ratio) of C:R=3:1 and […] (Total Flow Rate) of 12 mL/min. • 6) The resulting mixture from step 5) was centrifuged at 4,000 rpm using an Amicon-Ultra tube filter (50K), and the process of concentration and dilution was repeated to remove excess ethanol, and then concentrated to a final x mg/ml (theoretical concentration).
(§4) • 1) For the prepared formulation, particle characteristics were confirmed using a particle size analyzer (Dynamic Light Scattering, DLS), and the results are shown in Table 2 below. • 2) For the prepared formulation, mRNA encapsulation efficiency was confirmed through Ribo-green assay, and the results are shown in Table 1 below.

A short description of data set [2]: Particle characteristics of the prepared formulation by particle size analyzer (Dynamic Light Scattering, DLS). As to conditions: mRNA formulation, compound:DOPE:Cholesterol:DMG-PEG=50:10:38.5:1.5, N/P ratio 6; for PDI (PI) / Z-average: DLS. Type of data set: physicochemical. As for the experimental part:
as §1, §2, §3, §4

Molecules are shown by their SMILES.

`CCCCCCC(OC(=O)CCCCCCCN(C)CCCCCCCC(=O)OC(CCCCCC)C1CC1)C1CC1` (centres unmarked) [Formula G]: in data set [1], the Encapsulation efficiency turned out to be 92.1 ± 0.1%. Besides, in data set [2], the Zeta-potential was −6.93 ± 1.48 mV, the “PDI (PI)” value was 0.17 ± 0.02 and the Z-average is 194.9 ± 3.59 nm.

Take `CCCCCCC(OC(=O)CCCCCN(C)CCCCCC(=O)OC(CCCCCC)C1CC1)C1CC1` (centres unmarked) [Formula B]: in data set [2], the Zeta-potential was −4.30 ± 3.03 mV, the “PDI (PI)” value is 0.12 ± 0.03 and the Z-average stood at 183.3 ± 2.86 nm.

`CCCCCCCCC(OC(=O)CCCCCCCN(C)CCCCCCCC(=O)OC(CCCCCCCC)C1CC1)C1CC1` (centres unmarked) [Formula A]: in data set [2], the Zeta-potential is −10.96 ± 2.69 mV, the “PDI (PI)” value is on record as 0.09 ± 0.01 and the Z-average came out at 135.0 ± 0.46 nm.

Consider `CCCCCCCCC(OC(=O)CCCCCCCN(C)CCCCCCCC(=O)OC(CCCCCCCC)C1CCCCC1)C1CCCCC1` (centres unmarked) [Formula D], for which the Encapsulation efficiency in data set [1] is recorded as 97.6 ± 0.2%. For the same compound, in data set [2], the Zeta-potential is listed as −2.37 ± 0.39 mV, the “PDI (PI)” value is given as 0.07 ± 0.04 and the Z-average turned out to be 154.6 ± 2.75 nm.

On to `CCCCCCCCCCC(OC(=O)CCCCCCCN(C)CCCCCCCC(=O)OC(CCCCCCCCCC)C1CC1)C1CC1` (centres unmarked) [Formula C], for which the Encapsulation efficiency in data set [1] stood at 95.4 ± 0.2%. In addition, in data set [2], the Zeta-potential is −7.57 ± 4.12 mV, the “PDI (PI)” value is 0.12 ± 0.00 and the Z-average was 120.0 ± 2.38 nm.

For `CCCCCCCCC(C(=O)OCCCCCCCN(C)CCCCCCCOC(=O)C(CCCCCCCC)C1CC1)C1CC1` (centres unmarked) [Formula F], the Encapsulation efficiency in data set [1] was 91.1 ± 0.2%. In data set [2], the Zeta-potential is on record as −6.24 ± 3.13 mV, the “PDI (PI)” value is recorded as 0.12 ± 0.02 and the Z-average was found to be 131.5 ± 0.12 nm.

Take `CCCCCCCCC(OC(=O)CCCCCCCN(CCO)CCCCCCCC(=O)OC(CCCCCCCC)C1CC1)C1CC1` (centres unmarked) [Formula E]: the Encapsulation efficiency in data set [1] turned out to be 98.4 ± 0.5%. Further, in data set [2], the Zeta-potential is −4.69 ± 1.56 mV, the “PDI (PI)” value came out at 0.10 ± 0.04 and the Z-average worked out at 127.4 ± 0.52 nm.

The values are drawn from patent US20260209171A1, “CATIONIC LIPIDS AND MANUFACTURING METHOD THEREFOR” (SAMYANG HOLDINGS CORPORATION, priority 2022, published 2026).
